Test results reported in article PMC12016938, “A small molecule PKCε inhibitor reduces hyperalgesia induced by paclitaxel or opioid withdrawal” (JCI Insight, 2025).

Columns and labels:
[1] = system: paclitaxel-induced hyperalgesia; assay: Paclitaxel-induced hyperalgesia, Randall-Selitto paw pressure test; conditions: male rats; 1 mg/kg i.p. on days 1, 3, 5, 7
Protocol: We tested if CP612 reverses this hyperalgesia. Male rats received repeated injections of paclitaxel (1 mg/kg, i.p. on days 1, 3, 5, and 7). Twenty-four hours after the last dose of paclitaxel, rats were administered vehicle (2 mL/kg, i.p.) or CP612 (20 mg/kg, i.p.).
Mechanical nociceptive thresholds in rats were quantified by the Randall-Selitto paw pressure test using an Ugo Basile Analgesy-Meter. This device applies a linearly increasing mechanical force to the dorsum or plantar region of the rat hind paw. The mechanical nociceptive threshold is defined as the force in grams at which a rat withdraws its paw. The higher the force to elicit paw withdrawal, the higher the pain threshold (and the lower the sensitivity to pain). For studies testing nociceptive thresholds after the PKCε activator ψεRACK, or after the cancer chemotherapeutic drug paclitaxel, rats were placed into cylindrical acrylic restrainers for 40 minutes before starting each session. The restrainers had lateral ports to allow access to the hind paw, as previously described ([35]), and pain thresholds were measured by applying force to the dorsum of the hind paw. Prior to starting experiments, baseline mechanical nociceptive threshold was obtained as the mean of 2–3 readings on 1 hind paw in each rat.

[2] = system: self-administration (addictive potential); assay: I.v. self-administration of CP612, between-session progressive ratio and demand curve; conditions: rat, in vivo
Protocol: We tested the addictive potential of CP612 by examining the extent to which rats are willing to work to obtain CP612. Rats were initially trained to self-administer either saline, morphine (500 μg/kg/i.v. infusion), or 1 of 3 different doses of CP612 (75, 150, or 300 μg/kg/i.v. infusion) for 4 days at fixed ratio 1 (FR1, where 1 nose poke delivers 1 infusion).
During the second phase, the ratio to obtain an infusion increased geometrically every other day (FR1, FR3, FR6, FR12, FR24, FR48, and FR96).
Data (number of self-infusions) were also fitted in an economic-demand curve, which provides an estimate of the motivation to obtain drugs and their addictive potential ([20]). We measured elasticity (α), which is the relative change in consumption as a function of price (i.e., ratio of nose pokes required to obtain an infusion). Behavior is considered “inelastic” when consumption is insensitive to price and “elastic” when consumption is sensitive to price. We also measured Pmax, which is the price at which intake switches from inelastic to elastic. […] (Figure 8B).
Rats not immediately anesthetized were eliminated from the study.
Following this initial acquisition phase at FR1, the ratio to obtain the drug was increased geometrically every other day: FR3 (3 nose pokes are required to obtain 1 infusion of morphine), FR6, FR12, FR24, FR48, and FR96. This allows for analysis of drug consumption as a function of “price” using demand curves for behavioral economics, which can estimate the motivation to obtain drugs and their “addictive potential” ([20]). For this, data from each rat were fitted to the equation log Q = log Q0 + k (e ^–α(Q0 ^C) – 1), where Q represents consumption (number of self-infusions), and Q0 represents the level of consumption at the lowest price. C represents price for the drug (i.e., the ratio), and k is set to a constant accounting for the estimated range of consumption in logarithmic units (k = 4 in these studies). The symbol α is the relative change in consumption across changes in price (ratio). Behavior is considered “inelastic” when consumption is insensitive to price (i.e., the curve is flat, and consumption is maintained despite increases in price), and it switches to “elastic” when consumption is sensitive to price (i.e., when the curve is steep and consumption declines with increases in price). […] We also compared groups for their average intake in the consumption-price curves by measuring α (elasticity) and Pmax.

[3] = system: morphine self-administration; format: in vivo; conditions: morphine 500 µg/kg/infusion alone, individual rats and group mean
Protocol: Because many patients with chronic pain take opioids for pain management ([8], [9]), we wanted to know if CP612 would change opioid intake. Therefore, we investigated if adding CP612 to the morphine solution during self-administration (i.e., a cocktail of morphine and CP612) modifies self-administration of morphine. We tested rats from the prior experiment for self-administration of morphine (500 μg/kg/i.v. infusion). Rats were first tested under a FR6 to reestablish responding.
Rats not immediately anesthetized were eliminated from the study. This excluded 2 rats from all experiments.

## CC(=O)O[C@H]1C(=O)[C@@]2(C)[C@H]([C@H](OC(=O)c3ccccc3)[C@]3(O)C[C@H](OC(=O)[C@H](O)[C@@H](NC(=O)c4ccccc4)c4ccccc4)C(C)=C1C3(C)C)[C@]1(OC(C)=O)CO[C@@H]1C[C@@H]2O [Paclitaxel]
[1]
  Effect of paclitaxel on nociceptive threshold: induced hyperalgesia

## CN1CC[C@]23c4c5ccc(O)c4O[C@H]2[C@@H](O)C=C[C@H]3[C@H]1C5 [Mor]
[2]
  AVG AH (FR3): 25.72
  AVG AH (FR6): 41.83
  AVG AH (FR12): 75.17
  AVG AH (FR24): 136.00
  AVG AH (FR48): 160.11
  AVG AH (FR96): 163.28
  AVG IH (FR1_D1 to D4): 7.83
  AVG IH (FR1_Last 2 FR1 days): 4.44
  AVG IH (FR1_Last 4 FR1 days): 6.31
  AVG IH (FR3): 9.28
  AVG IH (FR6): 8.33
  AVG IH (FR12): 9.39
  AVG IH (FR24): 10.72
  AVG IH (FR48): 14.00
  AVG IH (FR96): 15.22
  AVG Inf (FR3): 7.00
  AVG Inf (FR6): 6.22
  AVG Inf (FR12): 5.56
  AVG Inf (FR24): 5.00
  AVG Inf (FR48): 2.83
  AVG Inf (FR96): 1.17
  AVG Latency (FR1_D1 to D4): 2.60
  AVG Latency (FR1_Last 2 FR1 days): 0.81
  AVG Latency (FR1_Last 4 FR1 days): 0.93
  AVG Latency (FR3): 0.62
  AVG Latency (FR6): 1.19
  AVG Latency (FR12): 1.12
  AVG Latency (FR24): 1.19
  AVG Latency (FR48): 0.69
  AVG Latency (FR96): 0.92
  D1 AH (FR1): 13.44
  D1 AH (FR3): 24.67
  D1 AH (FR6): 38.44
  D1 AH (FR12): 75.11
  D1 AH (FR24): 135.67
  D1 AH (FR48): 167.78
  D1 AH (FR96): 169.67
  D1 IH (FR1): 11.56
  D1 IH (FR3): 9.11
  D1 IH (FR6): 7.11
  D1 IH (FR12): 9.22
  D1 IH (FR24): 10.56
  D1 IH (FR48): 13.22
  D1 IH (FR96): 17.11
  D1 Inf (FR1): 8.78
  D1 Inf (FR3): 6.56
  D1 Inf (FR6): 5.67
  D1 Inf (FR12): 5.67
  D1 Inf (FR24): 4.89
  D1 Inf (FR48): 2.89
  D1 Inf (FR96): 1.33
  D1 Latency (FR1): 7.37
  D1 Latency (FR3): 0.52
  D1 Latency (FR6): 0.51
  D1 Latency (FR12): 0.93
  D1 Latency (FR24): 0.99
  D1 Latency (FR48): 0.71
  D1 Latency (FR96): 1.02
  D2 AH (FR1): 11.44
  D2 AH (FR3): 26.78
  D2 AH (FR6): 45.22
  D2 AH (FR12): 75.22
  D2 AH (FR24): 136.33
  D2 AH (FR48): 152.44
  D2 AH (FR96): 156.89
  D2 IH (FR1): 6.89
  D2 IH (FR3): 9.44
  D2 IH (FR6): 9.56
  D2 IH (FR12): 9.56
  D2 IH (FR24): 10.89
  D2 IH (FR48): 14.78
  D2 IH (FR96): 13.33
  D2 Inf (FR1): 8.89
  D2 Inf (FR3): 7.44
  D2 Inf (FR6): 6.78
  D2 Inf (FR12): 5.44
  D2 Inf (FR24): 5.11
  D2 Inf (FR48): 2.78
  D2 Inf (FR96): 1.00
  D2 Latency (FR1): 0.74
  D2 Latency (FR3): 0.72
  D2 Latency (FR6): 1.88
  D2 Latency (FR12): 1.31
  D2 Latency (FR24): 1.39
  D2 Latency (FR48): 0.68
  D2 Latency (FR96): 0.82
  D3 AH (FR1): 14.11
  D3 IH (FR1): 8.44
  D3 Inf (FR1): 9.22
  D3 Latency (FR1): 1.40
  D4 AH (FR1): 14.00
  D4 IH (FR1): 4.44
  D4 Inf (FR1): 9.56
  D4 Latency (FR1): 0.90
  last AH (FR1): 14.00
  last IH (FR1): 4.44
  last Inf (FR1): 9.78
  last Latency (FR1): 0.71
  last-1 AH (FR1): 14.00
  last-1 IH (FR1): 4.44
  last-1 Inf (FR1): 9.56
  last-1 Latency (FR1): 0.90
  last-2 AH (FR1): 14.11
  last-2 IH (FR1): 8.44
  last-2 Inf (FR1): 9.22
  last-2 Latency (FR1): 1.40
  last-3 AH (FR1): 12.67
  last-3 IH (FR1): 7.89
  last-3 Inf (FR1): 8.89
  last-3 Latency (FR1): 0.69
[3]; Day 3, progressive ratio
  D3 Breakin Point (PR): 38.3
[3]; active hole, Day 1, fixed ratio
  D1 AH (FR6): 49.2
[3]; active hole, Day 2, fixed ratio
  D2 AH (FR6): 68.6
[3]; active hole, Day 3, progressive ratio
  D3 AH (PR): 186.1
[3]; inactive hole, Day 1, fixed ratio
  D1 IH (FR6): 4.7
[3]; inactive hole, Day 2, fixed ratio
  D2 IH (FR6): 5.2
[3]; inactive hole, Day 3, progressive ratio
  D3 IH (PR): 8.8
[3]; infusions, Day 1, fixed ratio
  D1 Inf (FR6): 6.7
[3]; infusions, Day 2, fixed ratio
  D2 Inf (FR6): 9.4
[3]; infusions, Day 3, progressive ratio
  D3 Inf (PR): 10.5
[3]; intake, Day 1, fixed ratio
  D1 mg/kg (FR6): 3.3 mg/kg
[3]; intake, Day 2, fixed ratio
  D2 mg/kg (FR6): 4.7 mg/kg
[3]; intake, Day 3, progressive ratio
  D3 mg/kg (PR): 5.2 mg/kg
[3]; time to first self-administered infusion, Day 1, fixed ratio
  D1 Latency (FR6): 3.3 min
[3]; time to first self-administered infusion, Day 2, fixed ratio
  D2 Latency (FR6): 2.8 min
